In paper PMC12131194, “Rational design, synthesis, and evaluation of novel polypharmacological compounds targeting NaV1.5, KV1.5, and K2P channels for atrial fibrillation” (The Journal of Biological Chemistry, 2025):

Biological target: T1, human Kv1.5 (Homo sapiens, UniProt P22460)
T1 construct: KV1.5 (NM_002234), and TASK-1 (NM_002246); expressed in transfected cells; host or cells: HEK-293 (transient transfection)
Assay: Whole-cell patch-clamp in transfected HEK-293 cells, KV1.5
Type: cell-based
Conditions: 10 μM and 100 μM, +40 mV
Description: The human embryonic kidney 293 (HEK-293) cell line was obtained from the American Type Culture Collection. HEK-293 cells were cultured in Dulbecco’s modified Eagle’s medium (DMEM-F12, Invitrogen Life Technologies) supplemented with 5% (v/v) fetal bovine serum (FBS) (Thermo Fisher Scientific) and 1% antibiotics (penicillin 100 U/ml y streptomycin 100 μg/ml) (Gibco, Thermo Fisher). The cells were maintained at 37 °C and 5% CO2 atmosphere.
For the electrophysiological experiments, HEK-293 cells were transiently transfected with cDNA encoding human NaV1.5 (plasmid 145,374, Addgene), KV1.5 (NM_002234), and TASK-1 (NM_002246). […] The cells were incubated for 4 h in transfection medium OptiMEM (Invitrogen). […]
For Nav1.5, the effect of 6f at both concentrations was tested using a repetitive single test voltage pulse at −10 mV (during 20 ms) from a holding potential of −80 mV, with intervals of 5s between pulses. For Kv1.5 and TASK-1, ramp voltage protocols were applied with pulse intervals of 20 s, and the currents were analyzed at +40 mV. […]
After recording currents with stable amplitudes, the cells were treated with 6f and applied from the bath solution. Currents were continuously recorded during repetitive pulses until a stable effect was achieved. […] The inhibition percentage was calculated as follows: Inℎibition (%) = 100 ∗ (Icontrol − Idrug)/Icontrol.

T1 sequence (P22460 whole entry): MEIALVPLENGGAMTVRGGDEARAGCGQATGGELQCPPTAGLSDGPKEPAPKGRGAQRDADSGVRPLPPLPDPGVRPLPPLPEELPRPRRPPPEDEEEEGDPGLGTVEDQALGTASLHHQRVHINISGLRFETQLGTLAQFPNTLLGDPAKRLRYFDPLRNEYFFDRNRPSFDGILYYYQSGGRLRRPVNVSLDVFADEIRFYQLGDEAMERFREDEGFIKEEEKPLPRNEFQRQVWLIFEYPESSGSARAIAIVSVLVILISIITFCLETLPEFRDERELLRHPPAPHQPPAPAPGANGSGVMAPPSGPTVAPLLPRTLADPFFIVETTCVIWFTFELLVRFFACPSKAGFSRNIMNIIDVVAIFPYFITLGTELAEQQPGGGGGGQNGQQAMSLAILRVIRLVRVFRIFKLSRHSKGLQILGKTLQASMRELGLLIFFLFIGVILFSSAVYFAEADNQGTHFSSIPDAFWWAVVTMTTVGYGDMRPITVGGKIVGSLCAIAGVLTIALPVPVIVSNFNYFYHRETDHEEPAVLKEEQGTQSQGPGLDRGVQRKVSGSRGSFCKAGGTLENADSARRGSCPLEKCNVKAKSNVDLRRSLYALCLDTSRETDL

## CCCCN(CCCC)CC(=O)Nc1ccc(OC)cc1OC [Compound 6f, 2-(dibutylamine)-N-(2,4-dimethoxiphenyl)acetamide]
  Blockade of KV1.5 in HEK cells: significant blockade by 6f only at 100 μM
